The series can be described thus: Stability of the compound by HPLC analysis. Type of series: physicochemical.

`COc1cc(OC)c2c(c1)[C@H]([C@H]1c3cc(C)cc(O)c3C(=O)c3c(OC)cc(O)cc31)c1cc(C)cc(O)c1C2=O`: the Stability entry is recorded as “Unstable”.
